Assay results taken from patent US20070060636A1, “High enantiomeric purity dexanabinol for pharmaceutical compositions” (priority 2002, published 2007).
Like-named read-outs stand apart in the source and are kept apart here.

How the values were obtained:
[1] = 1st Phase I study, rising single i.v. dose, healthy male volunteers; format: in vivo, human; conditions: for AUC∞/Dose: normalized for dose (mg/kg); for half-life / MRT / clearance / AUC / AUC(0-inf) / Cmax / Vd: male, human, plasma, iv; for AUC / AUC(0-inf) / Cmax: up to 24 hr; for Vd: read-out: Vss
Procedure: (§1) Pharmacokinetic parameters were estimated by a non-compartmental method using WinNonlin Professional version 3.2 (Pharsight Corp., Mountain View, Calif.). The maximum plasma concentration (Cmax), when the drug is administered by infusion, is the concentration at the end of infusion. The Cmax following intravenous bolus administration is the value estimated by the software to be the concentration at t=0. The terminal slope (X) was estimated by linear regression through the last time points and used to calculate the terminal half-life (t1/2) from the following equation: t1/2=0.693/λ The area under the curve from time of dosing through the last time point (AUCz) was calculated by the linear trapezoid method. The AUC extrapolated to infinity (AUC∞) was calculated from the following equation: AUC∞=AUCz+Cz/λ where Cz is the concentration at the last time point predicted by the linear regression. AUC∞ was normalized for dose (mg/kg) and presented as AUC∞/Dose. Mean residence time (MRT), when the drug is administered by infusion is described by the following equation: MRT=(AUMC/AUC)−(TI)/2 Mean residence time after i.v. bolus administration is described by the following equation: MRT=(AUMC/AUC) where AUMC is the area under the first moment curve and TI is the length of infusion. Plasma clearance (CL), and the apparent volume of distribution at steady state (Vss) were calculated from the following equations: CL=Dose/AUC∞ Vss=MRT×CL
A Phase I, open label, single center study was conducted to evaluate the safety and tolerance of dexanabinol of high enantiomeric purity following a single intravenous administration to normal, healthy male volunteers (Brewster M. E. et al., International Journal Of Clinical Pharmacology and Therapeutics 35: 361-5, 1997). The trial was designed as a rising-dose tolerance study in healthy young male volunteers. In the study, seven groups of at least six subjects each (in the 100 mg dose n=9) received increasing doses (4, 8, 16, 32, 48, 100, 200 mg/volunteer) of dexanabinol. An additional group of 6 subjects received the vehicle alone. The lower doses, from 4 to 32 mg/volunteer, were included only in the safety segment of the study. Volunteers were followed-up up to 6 days after drug dosing for safety evaluation.
The pharmacokinetic segment of this study involved 27 healthy male subjects to assess the pharmacokinetic profile of 48, 100 and 200 mg i.v. doses of dexanabinol. Each dosing group, including vehicle control, consisted of 6 healthy male subjects, except for the 100 mg dosing group which contained nine subjects. On the pre-study day, volunteers were treated with 20 mg dexamethasone orally. On the study day, each group was premedicated with Chlorpheniramine maleate 10 mg (H1 blocker) and Cimetidine 300 mg (H2 blocker) intravenously, followed 30 minutes later by a single intravenous infusion of dexanabinol, administered using an Ivac peristaltic pump at a rate of 6 ml/min (approximately 15 min infusion/dose). Ten milliliters of blood were then removed (from the contralateral arm) at the end of the infusion, at 5, 10, 20, 30, 45 min, and at 1, 2, 3, 6, 12 and 24 hr post infusion. In some cases blood was also drawn 48 hr post end of infusion.
Mean pharmacokinetic parameters were estimated by non-compartmental methods up to 24 hr post-infusion for each dose group (mean±SE; n=6 or 9) using WinNonlin Professional version 3.2, (Pharsight Corp., Mountain view Calif.) and are presented in Table 8.

[2] = 14-day multiple dose pharmacokinetic/toxicity study, rabbit; format: in vivo, rabbits; conditions: for AUC(0-inf) / Cmax: plasma, 25 mg/kg i.v. daily, final dose Day 14 (NOAEL); for AUC∞ Ratio to Phase I / Cmax Ratio to Phase I / AUC∞ Ratio to Phase II / Cmax Ratio to Phase II: 25 mg/kg Day 14; for AUC∞ Ratio to Phase I / Cmax Ratio to Phase I: vs human 150 mg Phase I; for AUC∞ Ratio to Phase II / Cmax Ratio to Phase II: vs human 150 mg Phase II
Procedure: The pharmacokinetics of dexanabinol of high enantiomeric purity formulated in CREMOPHOR EL®:ethanol as described in Example 4 were investigated in rats, rabbits, and monkeys following intravenous administration of single doses, and 14 and 28 days of repeated dosing. Human pharmacokinetics was studied during Phase I and Phase II clinical studies. Dexanabinol used in the pharmacokinetic studies was formulated as drug concentrates of 50 and 100 mg/ml and diluted with sterile 0.9% NaCl solution prior to intravenous (i.v.) administration to the desired final doses. Determination of dexanabinol concentrations in plasma and brain extracts was carried out using a validated Gas Chromatography-Mass Spectra (GC-MS) assay following solid phase extraction of the drug and derivatization. The limit of quantitation of the assay is 0.1 ng/ml.
as §1
In 14-day multiple dose pharmacokinetic studies, the NOAEL was 15 mg/kg/day in rats and 25 mg/kg/day in rabbits. In a 28-day study in monkeys the NOAEL was 25 mg/kg/day. Cmax and AUC observed following the last dose at the NOAEL in the multiple dose toxicity studies and the ratios of these values to those observed in the Phase I and II studies for the 150 mg dose are shown in Table 7.

[3] = 48 mg single i.v. infusion, healthy volunteers, mean ± SE
[4] = 100 mg single i.v. infusion, healthy volunteers, mean ± SE
[5] = 200 mg single i.v. infusion, healthy volunteers, mean ± SE
[6] = both sexes, iv, rabbit male & female

CCCCCCC(C)(C)c1cc(O)c2c(c1)OC(C)(C)[C@H]1CC=C(CO)C[C@H]21 [dexanabinol, 1,1-dimethylheptyl-(3S,4S)-7-hydroxy-Δ^6-tetrahydrocannabinol]
AUC∞/Dose [1, 3]: 72,469 ± 8,774 ng × min/ml
AUC∞/Dose [1, 4]: 59,374 ± 4,742 ng × min/ml
AUC∞/Dose [1, 5]: 48,162 ± 3,355 ng × min/ml
Plasma concentrations ([1]; after a 48 mg dose (0.62 mg/kg)): approximately 1.8 μg/ml
Plasma concentrations ([1]; at 100 mg (1.29 mg/kg)): ~2900 ng/mL
Plasma concentrations ([1]; at 200 mg (2.59 mg/kg)): ~4600 ng/mL
half-life ([1]; 48 mg, 48 mg single i.v. infusion, healthy volunteers, mean ± SE, read-out: t1/2 (converted)): 6.3 ± 0.7 h
half-life ([1]; 100 mg, 100 mg single i.v. infusion, healthy volunteers, mean ± SE, read-out: t1/2 (converted)): 6.1 ± 0.7 h
half-life ([1]; 200 mg, 200 mg single i.v. infusion, healthy volunteers, mean ± SE, read-out: t1/2 (converted)): 8.2 ± 0.7 h
half-life ([1]; single i.v. infusion 48, 100, 200 mg, read-out: distributional phase half-life): 0.0333 to 0.05 h
half-life ([1]; single i.v. infusion 48, 100, 200 mg, read-out: intermediate phase elimination half-life): 1 to 2 h
half-life ([1]; single i.v. infusion 48, 100, 200 mg, read-out: terminal elimination phase half-life): 8.5 to 9.5 h
MRT [1, 3]: 3.1 ± 0.2 h
clearance [1, 3]: 14.9 ± 1.9 mL/min/kg
AUC [1, 3]: 710 ng·h/mL
AUC(0-inf) [1, 3]: 725 ng·h/mL
Cmax [1, 3]: 1860 ng/mL
Vd [1, 3]: 2.8 ± 0.4 L/kg
MRT [1, 4]: 3.1 ± 0.3 h
clearance [1, 4]: 17.8 ± 1.5 mL/min/kg
AUC [1, 4]: 1200 ng·h/mL
AUC(0-inf) [1, 4]: 1220 ng·h/mL
Cmax [1, 4]: 2890 ng/mL
Vd [1, 4]: 3.4 ± 0.4 L/kg
MRT [1, 5]: 4 ± 0.6 h
clearance [1, 5]: 21.3 ± 1.6 mL/min/kg
AUC [1, 5]: 2240 ng·h/mL
AUC(0-inf) [1, 5]: 2320 ng·h/mL
Cmax [1, 5]: 4570 ng/mL
Vd [1, 5]: 5 ± 0.7 L/kg
acute doses found safe ([1]; single i.v.): ≤ 200 mg per subject
tolerability of drug administration ([1]; single i.v. 4 to 200 mg/volunteer): well tolerated
AUC(0-inf) [2, 6]: 67700 ng·h/mL
Cmax [2, 6]: 132000 ng/mL
AUC(0-inf) ([2]; iv, rabbit female): 67900 ng·h/mL
Cmax ([2]; iv, rabbit female): 115000 ng/mL
AUC(0-inf) ([2]; iv, rabbit male): 67700 ng·h/mL
Cmax ([2]; iv, rabbit male): 150000 ng/mL
AUC∞ Ratio to Phase I ([2]; rabbit female): 21.2
Cmax Ratio to Phase I ([2]; rabbit female): 23.0
AUC∞ Ratio to Phase II ([2]; rabbit female): 45.8
Cmax Ratio to Phase II ([2]; rabbit female): 58.6
AUC∞ Ratio to Phase I ([2]; rabbit male & female): 21.1
Cmax Ratio to Phase I ([2]; rabbit male & female): 26.4
AUC∞ Ratio to Phase II ([2]; rabbit male & female): 45.6
Cmax Ratio to Phase II ([2]; rabbit male & female): 67.2
AUC∞ Ratio to Phase I ([2]; rabbit male): 21.1
Cmax Ratio to Phase I ([2]; rabbit male): 29.9
AUC∞ Ratio to Phase II ([2]; rabbit male): 45.6
Cmax Ratio to Phase II ([2]; rabbit male): 76.0
NOAEL at 14 days ([2]; rabbit, in vivo, iv, 14-day multiple dose i.v.): 25 mg/kg/day
